Experimental data as given in patent publication US12577201B2, “Glutamine analogs” (Jacobio Pharmaceuticals Co., Ltd., priority 2020, dated 2026).

Experiments:
[1] = Plasma stability, dog plasma; type: in vitro ADME; settings: 1 μM, 37° C., 4 hours
Description: (§1) For metabolic stability, plasma from dog, monkey, swine and human were used. For stability, prodrugs (1 μM) were spiked in respective solutions and incubated in an orbital shaker at 37° C. 50 μL aliquots of the mixture in duplicate were removed, and the reaction quenched by addition of four times the volume of ice cold acetonitrile spiked with the internal standard (Dexamethasone 100 ng/mL). The samples were vortexed for 30 s and centrifuged at 15000 g for 5 min. 100 μL of the supernatant was diluted with 100 μL of water and transferred to the 0.6 mL plastic tubes on 96-well plate. Prodrug disappearance was monitored over time using a liquid chromatography and tandem mass spectrometry (LC-MS/MS).
(§2) For LC-MS/MS, prodrugs were analyzed on a ExionLC AD HPLC system coupled to REF Triple Quad 5500+ mass spectrometer with an ESI interface on an Phenomenex Kinetex 5 m C18 100A (2.1*50) mm UPLC column. The autosampler was temperature controlled and was operated at 4° C. The mobile phase used for the chromatographic separation was composed of acetonitrile/water containing 0.10% formic acid and will run at a flow rate of 0.6 mL/min for 3.5 min using gradient elution. The column effluent was monitored using […], equipped with an electrospray probe set in the positive ionization mode. Samples were introduced into the ionization source through a heated nebulized probe (400° C.). Disappearance of prodrugs will be measured from ratio of peak areas of analyte to IS.
(§3) For quantification of compound remaining, disappearance of prodrugs was measured from ratio of peak areas of analyte to IS.

[2] = Plasma stability, monkey plasma; settings: 1 μM, 37° C., 4 hours
Description: as §1, with “The samples were vortexed for 30 s and centrifuged at 15000 g for 5 min.” left out
as §2, §3

[3] = Plasma stability, swine plasma; settings: 1 μM, 37° C., 4 hours
Description: as §1, with “The samples were vortexed for 30 s and centrifuged at 15000 g for 5 min.” left out
as §2, §3

[4] = Stability in liver microsomes, human; type: in vitro ADME; settings: 60 minutes, read-out: In vitro Clint
Description: (§4) For metabolic stability, microsomes from human, monkey, dog, rat and mouse were used. For stability, prodrugs (1 μM) were spiked in each microsomes matrix and incubated in an orbital shaker at 37° C. Aliquots of 50 μL were taken from the reaction solution at 0, 15, 30, 45 and 60 min. The reaction was stopped by the addition of 4 volumes of cold acetonitrile with IS (100 nM alprazolam, 200 nM labetalol, 200 nM caffeine and 2 μM ketoprofen). Samples were centrifuged at 3, 220 g for 40 minutes. Aliquot of 100 μL of the supernatant was mixed with 100 μL of ultra-pure H2O and then used for LC-MS/MS analysis.
(§5) For LC-MS/MS, prodrugs were analyzed on an API 4000 instrument from AB Inc (Canada) with an ESI interface coupled to Shimadzu LC system on an Waters XSelect HSS T3 C18, 2.5 m, 2.1×30 mm column.
(§6) For data analysis, peak areas were determined from extracted ion chromatograms. The slope value, k, was determined by linear regression of the natural logarithm of the remaining percentage of the parent drug vs. incubation time curve. The in vitro half-life (in vitro t1/2) was determined from the slope value: in vitro t1/2=−(0.693/k)
(§7) Conversion of the in vitro t1/2 (min) into the in vitro intrinsic clearance (in vitro CLint, in μL/min/mg protein) was done using the following equation (mean of duplicate determinations): […]

[5] = Stability in liver microsomes, monkey; type: in vitro ADME; settings: 60 minutes, read-out: In vitro Clint
Description: as §4, §5, §6, §7

[6] = Stability in liver microsomes, rat; type: in vitro ADME; settings: 60 minutes, read-out: In vitro Clint
Description: as §4, §5, §6, §7

[7] = Stability in liver microsomes, mouse; type: in vitro ADME; settings: 60 minutes, read-out: In vitro Clint
Description: as §4, §5, §6, §7

MC38 tumor cells = test: Anti-tumor efficacy in MC38 syngeneics in C57BL/6 mouse (Example 9); type: in vivo; settings: C57BL/6, MC38, 2 μmol/kg S.C. QD; for T/C (%) / TGI (%) / TV (mm^3) (Mean ± SEM) D21 / TV (mm^3) at D21 (Mean ± SEM): D21; for TV (mm^3) at D21 (Mean ± SEM): Table 5
Description: Animal species: Mus musculus; Strain: C57BL/6; Age: 6-8 weeks; Sex: female.
The MC38 tumor cells were maintained in vitro in DMEM medium supplemented with 10% FBS at 37° C., 5% CO2. The cells growing in an exponential growth phase were harvested and counted for tumor inoculation. The culture MC38 were harvested, re-suspended in PBS containing 50% Matrigel at a density of 1×10^7 cells/mL. Each mouse was inoculated subcutaneously in the right flank region with 1×10^6 cells in 0.1 mL of PBS containing 50% Matrigel for tumor development.
(§8) The treatments were started when the mean tumor size reached 79-118 mm^3 (average tumor size 96 mm^3). Each group contained 8 tumor bearing mice. Group 1 was treated with Vehicle (10% DMSO+90% Saline), S.C., QD.
(§9) In vivo efficacy was examined according to absolute tumor growth inhibition (TGI) and the safety was evaluated according to weight change and survival in mice.
Statistical analysis of difference in tumor volume among the groups was performed using one-way ANOVA followed by individual comparisons using Games-Howell post-hoc test (equal variance not assumed). All data was analyzed using SPSS 22.0 software.

[8] = Body weight of C57BL/6 mice bearing MC38 tumors (Example 9); type: in vivo, Mus musculus; settings: C57BL/6, MC38, 2 μmol/kg S.C. QD
Description: as §8, with “QD. Group 2 was given treatments with reference compound A at 2 μmol/kg, S.C., QD. Group 3 was given treatments with compound 2 at 2 μmol/kg, S.C., QD.” for “QD.”
as §9

[9] = Body weight of CES1c -/- mice bearing MC38 tumors (Example 10); type: in vivo; settings: CES1c -/- mouse, MC38, 2 μmol/kg S.C. QD; for BW Change (%): D6 to D26
Description: The treatments were started when the mean tumor size reached 52-132 mm^3 (average tumor size 95 mm^3). Each group contained 5 tumor bearing mice. Group 1 was treated with Vehicle (10% DMSO+90% Saline), S.C., QD(Subcutaneous injection, quaque die). Group 2 was given treatments with reference compound A at 2 μmol/kg, S.C., QD. Group 3 was given treatments with compound 2 at 2 μmol/kg, S.C., QD.
as §9

Row | SMILES | plasma stability (compound remaining) [1] | plasma stability (compound remaining) [2] | plasma stability (compound remaining) [3] | microsomal CLint at 1 μM [4] | microsomal CLint at 1 μM [5] | microsomal CLint at 1 μM [6] | microsomal CLint at 1 μM [7] | TV (mm^3) (Mean ± SEM) D6 (MC38 tumor cells) | TV (mm^3) (Mean ± SEM) D10 (MC38 tumor cells) | TV (mm^3) (Mean ± SEM) D14 (MC38 tumor cells) | TV (mm^3) (Mean ± SEM) D18 (MC38 tumor cells) | T/C (%) (MC38 tumor cells) | TGI (%) (MC38 tumor cells) | TV (mm^3) (Mean ± SEM) D21 (MC38 tumor cells) | TV (mm^3) (Mean ± SEM) D25 (MC38 tumor cells) | TV (mm^3) (Mean ± SEM) D28 (MC38 tumor cells) | TV (mm^3) (Mean ± SEM) D31 (MC38 tumor cells) | TV (mm^3) at D21 (Mean ± SEM) (MC38 tumor cells) | BW(g) (Mean ± SEM) Beginning (D6) [8] | BW(g) (Mean ± SEM) End (D21) [8] | further results
1 | CC(=O)N[C@@H](Cc1c[nH]c2ccccc12)C(=O)N[C@@H](CCC(=O)C=[N+]=[N-])C(=O)OC(C)C [Reference compound A, reference compound] | substantially intact | substantially intact | substantially intact | 119 µL/min/mg | 393 µL/min/mg | 95.2 µL/min/mg | 153 µL/min/mg | 96 ± 4 mm^3 | 148 ± 6 mm^3 | 196 ± 25 mm^3 | 297 ± 48 mm^3 | 14.4% | 85.6% | 399 ± 74 mm^3 | 680 ± 143 mm^3 | 928 ± 153 mm^3 | 1358 ± 213 mm^3 | 399 ± 74 mm^3 | 21.9 ± 0.3 g | 22.5 ± 0.4 g | BW Change (%) ([8]; D6 to D21): +2.8%; tolerability / body weight loss [9]: some body weight loss; BW(g) (Mean ± SEM) Beginning (D6) [9]: 19.2 ± 0.2 g; BW Change (%) [9]: −8.3%; BW(g) (Mean ± SEM) End (D26) [9]: 17.6 ± 0.9 g
2 | CO[C@@H](C)C(=O)N[C@@H](CCC(=O)C=[N+]=[N-])C(=O)OC(C)C [Compound 2, isopropyl (S)-6-diazo-2-((S)-2-methoxypropanamido)-5-oxohexanoate] | substantially intact | substantially intact | substantially intact | 43.4 µL/min/mg | 31.8 µL/min/mg | 62.4 µL/min/mg | 67.1 µL/min/mg | 96 ± 4 mm^3 | 141 ± 9 mm^3 | 140 ± 10 mm^3 | 180 ± 13 mm^3 | 9.5% | 90.5% | 263 ± 32 mm^3 | 381 ± 55 mm^3 | 496 ± 62 mm^3 | 617 ± 56 mm^3 | 263 ± 32 mm^3 | 21.7 ± 0.2 g | 22.4 ± 0.2 g | tolerability / body weight loss [9]: well-tolerated; BW(g) (Mean ± SEM) Beginning (D6) [9]: 19.1 ± 0.3 g; BW Change (%) [9]: +2.4%; BW(g) (Mean ± SEM) End (D26) [9]: 19.5 ± 0.3 g
